Blank lines part the entries; values can stand above or below the compound they belong to.
Columns and labels:
[1] = Cumulative urinary percent recovery of enterally administered tracer, crossover study in healthy adults and adults with Crohn's disease; format: in vivo, human; settings: for percent of administered dose recovered in urine: Crohn's disease patients
Method: (§1) A single center, randomized, open label, crossover study was performed to evaluate a solution containing 18.6 mg/mL of a pyrazine derived fluorophore (MB-102) at 1.5 or 3.0 mg/kg versus DSAT (L, 1000 mg and R, 200 mg) administered enterally.
(§2) To compare the dynamic ranges of the fluorophore and DSAT clearances, healthy adults and adults with evidence of small bowel Crohn's disease on magnetic resonance enterography were enrolled. Participants were randomized to receive either the fluorophore tracer or the sugars on treatment day 1, followed by the other tracer 3-7 days later. Urine was collected at baseline and 1, 2, 4, 6, 8, 10, and 12 hours after tracer ingestion. The cumulative urinary percent recovery of the fluorophore tracer was calculated using an Ultra-Performance Liquid Chromatography system with fluorescence detection and cumulative L, R, and L:R ratios using a normal phase, isocratic HPLC-tandem ESI mass spectrometry.

[2] = test system: rat model of small bowel injury; assay: Percent of administered dose of MB-102 recovered in urine, rat model of small bowel injury; format: in vivo; settings: rats with bowel injury compared to controls; oral gavage
Method: (§3) To this end, MB-102 was tested in the rat model of small bowel injury (FIGS. 4A and 4B). Transdermal measurements were initiated prior to oral gavage of MB-102 and transdermal measurements, alongside urine, were collected over time. Based on urine samples the Percent of Administered Dose Recovered was higher in rats with bowel injury than controls (FIG. 4A).

[3] = MB-102 plasma concentration (HPLC) after oral dose in healthy and Crohn's disease participants; format: in vivo, human; settings: for concentration at 360 min / concentration at 720 min: human, plasma, po
Method: In addition, two healthy participants and one participant with Crohn's disease were administered an oral dose of MB-102, and blood samples were collected at 6 and 12 hours post-administration. MB-102 plasma concentration levels were determined by HPLC.

[4] = Safety and tolerability of orally administered MB-102 in the human study; format: in vivo
Method: as §1, §2
5 healthy adults and 4 adults with Crohn's disease completed the study without serious adverse events. […] At 12 hours post-dose in the healthy participants, approximately 0.5% to 1.0% of the administered dose was recovered, reflecting the inability of MB-102 to transverse the intestinal barrier when gut permeability is normal. […]

[5] = test system: rat model of bowel injury; assay: Transdermal fluorescence detection of fluorophore after oral gavage, rat model of bowel injury; format: in vivo; settings: monitored continuously
Text: To probe the ability to assess gut function in a specimen-free and real-time manner, a dual-wavelength transdermal fluorescence detection system was utilized to monitor MB-301 and MB-404 in the rat model of bowel injury. […] Following anaesthetization, the fluorescence detection system was affixed with medical adhesive to a depilated area on the back of each rat. Transdermal fluorescence monitoring was then initiated to detect baseline fluorescence prior to delivery of MB-301 and MB-404 by oral gavage, and was monitored continuously. The concentration of MB-301 as determined by transdermal fluorescence measurements remained low in both injured and control animals (FIG. 2, dashed lines) as this fluorophore is comparatively rapidly absorbed by the small intestine and subsequently cleared. […] Therefore, transdermal detection of MB-301 and MB-404 fluorescence can be used to provide a non-invasive, real-time indication of gut health.
as §3

[6] = test system: rat model of small bowel injury; assay: Ratio of MB-404 to MB-301 in urine (HPLC) after oral gavage, rat model of small bowel injury; format: in vivo; settings: injured rats (indomethacin-induced bowel injury) compared to control rats
Text: DSAT was mimicked using two fluorophores with similar molecular weights to mannitol and lactulose, MB-301 and MB-404 (see Table 2).
Furthermore, like both sugars used in the DSAT, MB-301 and MB-404 are not metabolized and are excreted by glomerular filtration, with neither (or negligible) tubular secretion nor reabsorption. To test the ability to distinguish between healthy and diseased gut, a rat model of small bowel injury was used with two injured and two control rats. The day after indomethacin-induced bowel injury, the rats were anaesthetized, a catheter was inserted for urine collection, and both fluorophores were delivered by oral gavage. Urine was collected prior to oral gavage and at a series of time points post-gavage. Concentrations of MB-301 and MB-404 in urine were determined using HPLC, and the ratio of their concentrations was plotted over time in FIG. 1.

[7] = Control Participants, 360 min post-administration
[8] = Control Participants, 720 min post-administration

- percent of administered dose recovered in urine [1]: wide range
Structure (SMILES): OC[C@H]1O[C@@H](O[C@@H]2[C@@H](CO)OC(O)(CO)[C@H]2O)[C@H](O)[C@@H](O)[C@H]1O (mixture of isomers) [lactulose, reference compound]

- percent of administered dose recovered in urine [1]: wide range
- urine excretion ([1]; diseased participants with respect to controls, oral administration): increased
- MB-102 urine recovery ([1]; patients in remission when the study was performed): near normal values
- Plasma Concentration [3, 7]: 21.3 ng/mL
- Plasma Concentration [3, 8]: 16.7 ng/mL
- concentration at 360 min [3, 7]: 21.2 ng/mL
- concentration at 720 min [3, 8]: 16.8 ng/mL
- concentration at 360 min ([3]; Crohn's Disease Participant, 360 min post-administration): 63.1 ng/mL
- concentration at 720 min ([3]; Crohn's Disease Participant, 720 min post-administration): 26.5 ng/mL
Structure (SMILES): Nc1nc(C(=O)N[C@H](CO)C(=O)O)c(N)nc1C(=O)N[C@H](CO)C(=O)O [MB-102, 3,6-diamino-2,5-bis{N-[(1R)-1-carboxy-2-hydroxyethyl]carbamoyl}pyrazine]
- Percent of Administered Dose Recovered (urine) [2]: higher
- serious adverse events ([4]; 5 healthy adults and 4 adults with Crohn's disease): no serious adverse events
- tolerability ([4]; healthy adults and adults with Crohn's disease): well tolerated

Structure (SMILES): Nc1nc(C(=O)O)c(N)nc1C(=O)O [MB-301, 3,6-diamino-2,5-pyrazine-dicarboxylic acid]
- concentration as determined by transdermal fluorescence measurements ([5]; control animals): remained low
- concentration as determined by transdermal fluorescence measurements ([5]; injured animals): remained low

Structure (SMILES): O=C(NCC(O)CO)c1nc(NC[C@H](O)CO)c(C(=O)NCC(O)CO)nc1NC[C@H](O)CO (stereo partly drawn) [MB-404, N^2,N^5-bis(2,3-dihydroxypropyl)-3,6-bis[(S)-2,3-dihydroxypropylamino]pyrazine-2,5-dicarboxamide]
- ratio of MB-404 to MB-301 in urine [6]: higher
- concentration as determined by transdermal fluorescence measurements ([5]; control animals): remained low
- concentration as determined by transdermal fluorescence measurements ([5]; injured animals): increased over time

From patent publication US20220326255A1, “METHODS OF MONITORING MUCOSAL HEALING” (MediBeacon Inc., priority 2021, published 2022)
